The nature of the series: Relative thermodynamic stability of crystalline anhydrous Forms I and II (competitive slurry experiments). In kind it is physicochemical. How it is done:
Competitive slurry experiments were conducted to determine the relative stability of anhydrous Form I and II.

On to `Cn1c(Cn2ccc(C(F)(F)F)c(Oc3cc(Cl)cc(C#N)c3)c2=O)n[nH]c1=O` [anhydrous Form I, 3-chloro-5-({1-[(4-methyl-5-oxo-4,5-dihydro-1H-1,2,4-triazol-3-yl)methyl]-2-oxo-4-(trifluoromethyl)-1,2-dihydropyridin-3-yl}oxy)benzonitrile], for which, for the setting “at room temperature”, the “kinetic preference of form” value is “kinetically favored”. Also, where the note is “in solution, under general processing conditions”, the “conversion rate from AHI to AHII” value is on record as “very slow”. As for `Cn1c(Cn2ccc(C(F)(F)F)c(Oc3cc(Cl)cc(C#N)c3)c2=O)n[nH]c1=O` [anhydrous Form II, 3-chloro-5-({1-[(4-methyl-5-oxo-4,5-dihydro-1H-1,2,4-triazol-3-yl)methyl]-2-oxo-4-(trifluoromethyl)-1,2-dihydropyridin-3-yl}oxy)benzonitrile], under “at room temperature”, the thermodynamic stability result is “more thermodynamically stable”.
